Assay results published in ChEMBL document CHEMBL5608191, “Structure-based discovery of novel piperidine-biphenyl-DAPY derivatives as non-nucleoside reverse transcriptase inhibitors featuring improved potency, safety, and selectivity: From piperazine-biphenyl-DAPYs to piperidine-biphenyl-DAPYs” (Eur J Med Chem, 2024).

Legend:
[1] = test system: Human immunodeficiency virus 1; assay: Antiviral activity against wild-type HIV-1 IIIB infected in human MT4 cells assessed as protection against virus-induced cytopathic effect incubated for 5 days by MTT assay; assay type: functional, organism-based; conditions: Human immunodeficiency virus 1, IIIB, MT4, 120 h
[2] = Cytotoxicity against human MT4 cells assessed as reduction in cell viability incubated for 5 days by MTT assay; assay type: toxicity, cell-based; conditions: time 5 day
[3] = Selectivity index, ratio of CC50 for human MT4 cells to EC50 for wild-type HIV-1 IIIB infected in human MT4 cells; assay type: toxicity, cell-based; conditions: read-out: Ratio CC50/EC50
[4] = molecular target: Human immunodeficiency virus type 1 reverse transcriptase (Human immunodeficiency virus 1, UniProt Q72547); assay: Inhibition of recombinant wild-type HIV-1 reverse transcriptase incubated for 40 mins by fluorescence based assay
[5] = test system: Human immunodeficiency virus 1; assay: Antiviral activity against HIV-1 harboring RT L100I mutant infected in human MT4 cells assessed as protection against virus-induced cytopathic effect incubated for 5 days by MTT assay; assay type: functional, organism-based; conditions: Human immunodeficiency virus 1, MT4, 120 h
[6] = test system: Human immunodeficiency virus 1; assay: Antiviral activity against HIV-1 harboring RT K103N mutant infected in human MT4 cells assessed as protection against virus-induced cytopathic effect incubated for 5 days by MTT assay; assay type: functional, organism-based; conditions: Human immunodeficiency virus 1, MT4, 120 h
[7] = test system: Human immunodeficiency virus 1; assay: Antiviral activity against HIV-1 harboring RT Y181C mutant infected in human MT4 cells assessed as protection against virus-induced cytopathic effect incubated for 5 days by MTT assay; assay type: functional, organism-based; conditions: Human immunodeficiency virus 1, MT4, 120 h
[8] = test system: Human immunodeficiency virus 1; assay: Antiviral activity against HIV-1 harboring RT Y188L mutant infected in human MT4 cells assessed as protection against virus-induced cytopathic effect incubated for 5 days by MTT assay; assay type: functional, organism-based; conditions: Human immunodeficiency virus 1, MT4, 120 h
[9] = test system: Human immunodeficiency virus 1; assay: Antiviral activity against HIV-1 harboring RT E138K mutant infected in human MT4 cells assessed as protection against virus-induced cytopathic effect incubated for 5 days by MTT assay; assay type: functional, organism-based; conditions: Human immunodeficiency virus 1, MT4, 120 h

CCOC(=O)c1cnc(NC2CCN(Cc3ccc([N+](=O)[O-])cc3)CC2)nc1Oc1c(C)cc(-c2ccc(C#N)cc2)cc1C
EC50 [1]: 37 nM
CC50 at 120 h [2]: 164 µM
selectivity ratio [3]: 4390
IC50 [4]: 410 nM

CCOC(=O)c1cnc(NC2CCN(Cc3cccc(C(N)=O)c3)CC2)nc1Oc1c(C)cc(-c2ccc(C#N)cc2)cc1C
EC50 [1]: 15 nM
CC50 at 120 h [2]: 11.5 µM
selectivity ratio [3]: 757
EC50 [5]: 66 nM
EC50 [6]: 44 nM
EC50 [7]: 76 nM
EC50 [8]: 342 nM
EC50 [9]: 68 nM
IC50 [4]: 669 nM

CCOC(=O)c1cnc(NC2CCN(Cc3cccc(C(=O)NC)c3)CC2)nc1Oc1c(C)cc(-c2ccc(C#N)cc2)cc1C
EC50 [1]: 37 nM
CC50 at 120 h [2]: 20.4 µM
selectivity ratio [3]: 556
EC50 [5]: 74 nM
EC50 [6]: 48 nM
EC50 [7]: 67 nM
EC50 [8]: 246 nM
EC50 [9]: 51 nM
IC50 [4]: 686 nM

CCOC(=O)c1cnc(NC2CCN(Cc3ccc(S(C)(=O)=O)cc3)CC2)nc1Oc1c(C)cc(-c2ccc(C#N)cc2)cc1C
EC50 [1]: 13 nM
CC50 at 120 h [2]: 27.9 µM
selectivity ratio [3]: 2290
EC50 [5]: 57 nM
EC50 [6]: 13 nM
EC50 [7]: 51 nM
EC50 [8]: 67 nM
EC50 [9]: 105 nM
IC50 [4]: 598 nM

CCOC(=O)c1cnc(NC2CCN(Cc3cccc(C#N)c3)CC2)nc1Oc1c(C)cc(-c2ccc(C#N)cc2)cc1C
EC50 [1]: 36 nM
CC50 at 120 h [2]: 178 µM
selectivity ratio [3]: 4960
EC50 [5]: 342 nM
EC50 [6]: 65 nM
EC50 [7]: 134 nM
EC50 [8]: 389 nM
EC50 [9]: 81 nM
IC50 [4]: 530 nM

CCOC(=O)c1cnc(NC2CCN(Cc3ccc(S(=O)(=O)NC)cc3)CC2)nc1Oc1c(C)cc(-c2ccc(C#N)cc2)cc1C
EC50 [1]: 24 nM
CC50 at 120 h [2]: 10.9 µM
selectivity ratio [3]: 460
EC50 [5]: 35 nM
EC50 [6]: 26 nM
EC50 [7]: 72 nM
EC50 [8]: 177 nM
EC50 [9]: 38 nM
IC50 [4]: 744 nM

CCOC(=O)c1cnc(NC2CCN(Cc3ccc(F)cc3F)CC2)nc1Oc1c(C)cc(-c2ccc(C#N)cc2)cc1C
EC50 [1]: 54 nM
CC50 at 120 h [2]: 176 µM
selectivity ratio [3]: 3280
IC50 [4]: 634 nM

CCOC(=O)c1cnc(NC2CCN(Cc3ccc(CO)cc3)CC2)nc1Oc1c(C)cc(-c2ccc(C#N)cc2)cc1C
EC50 [1]: 40 nM
CC50 at 120 h [2]: 192 µM
selectivity ratio [3]: 4740
IC50 [4]: 514 nM

CCOC(=O)c1cnc(NC2CCN(Cc3ccncc3)CC2)nc1Oc1c(C)cc(-c2ccc(C#N)cc2)cc1C
EC50 [1]: 16 nM
CC50 at 120 h [2]: 60 µM
selectivity ratio [3]: 3720
EC50 [5]: 73 nM
EC50 [6]: 13 nM
EC50 [7]: 66 nM
EC50 [8]: 87 nM
EC50 [9]: 73 nM
IC50 [4]: 527 nM

CCOC(=O)c1cnc(NC2CCN(Cc3ccc(C(F)(F)F)cc3)CC2)nc1Oc1c(C)cc(-c2ccc(C#N)cc2)cc1C
EC50 [1]: 421 nM
CC50 at 120 h [2]: > 199 µM
selectivity ratio [3]: > 472
IC50 [4]: 990 nM

CCOC(=O)c1cnc(NC2CCN(Cc3ccccc3F)CC2)nc1Oc1c(C)cc(-c2ccc(C#N)cc2)cc1C
EC50 [1]: 47 nM
CC50 at 120 h [2]: 189 µM
selectivity ratio [3]: 4040
IC50 [4]: 769 nM

CCOC(=O)c1cnc(NC2CCN(Cc3ccc(S(N)(=O)=O)cc3)CC2)nc1Oc1c(C)cc(-c2ccc(C#N)cc2)cc1C
EC50 [1]: 35 nM
CC50 at 120 h [2]: > 195 µM
selectivity ratio [3]: > 5640
EC50 [5]: 212 nM
EC50 [6]: 46 nM
EC50 [7]: 202 nM
EC50 [8]: 538 nM
EC50 [9]: 83 nM
IC50 [4]: 736 nM

CCOC(=O)c1cnc(NC2CCN(Cc3ccc(/C=C/C(=O)OC)cc3)CC2)nc1Oc1c(C)cc(-c2ccc(C#N)cc2)cc1C
EC50 [1]: 79 nM
CC50 at 120 h [2]: > 194 µM
selectivity ratio [3]: > 2450
IC50 [4]: 535 nM

CCOC(=O)c1cnc(NC2CCN(Cc3ccc(F)c(F)c3)CC2)nc1Oc1c(C)cc(-c2ccc(C#N)cc2)cc1C
EC50 [1]: 201 nM
CC50 at 120 h [2]: 194 µM
selectivity ratio [3]: 967
IC50 [4]: 522 nM

CCOC(=O)c1cnc(NC2CCN(Cc3ccc(B(O)O)cc3)CC2)nc1Oc1c(C)cc(-c2ccc(C#N)cc2)cc1C
EC50 [1]: 48 nM
CC50 at 120 h [2]: 20.9 µM
selectivity ratio [3]: 439
IC50 [4]: 1300 nM

CCOC(=O)c1cnc(NC2CCN(Cc3ccc(OC(F)(F)F)cc3)CC2)nc1Oc1c(C)cc(-c2ccc(C#N)cc2)cc1C
EC50 [1]: 189 nM
CC50 at 120 h [2]: 175 µM
selectivity ratio [3]: 923
IC50 [4]: 2040 nM

CCOC(=O)c1cnc(NC2CCN(Cc3ccc(Cl)cc3)CC2)nc1Oc1c(C)cc(-c2ccc(C#N)cc2)cc1C
EC50 [1]: 194 nM
CC50 at 120 h [2]: 141 µM
selectivity ratio [3]: 728
IC50 [4]: 314 nM

Cc1cn([C@H]2C[C@H](N=[N+]=[N-])[C@@H](CO)O2)c(=O)[nH]c1=O [ZIDOVUDINE]
EC50 [1]: 34 nM
CC50 at 120 h [2]: > 7.49 µM
selectivity ratio [3]: > 223
EC50 [5]: 8 nM
EC50 [6]: 20 nM
EC50 [7]: 21 nM
EC50 [8]: 16 nM
EC50 [9]: 39 nM

CCOC(=O)c1cnc(NC2CCN(Cc3ccc(C(N)=O)cc3)CC2)nc1Oc1c(C)cc(-c2ccc(C#N)cc2)cc1C
EC50 [1]: 11 nM
CC50 at 120 h [2]: 191 µM
selectivity ratio [3]: 17400
EC50 [5]: 45 nM
EC50 [6]: 17 nM
EC50 [7]: 48 nM
EC50 [8]: 94 nM
EC50 [9]: 50 nM
IC50 [4]: 596 nM

CCOC(=O)c1cnc(N2CCN(Cc3cccc(C(N)=O)c3)CC2)nc1Oc1c(C)cc(-c2ccc(C#N)cc2)cc1C
EC50 [1]: 3360 nM
CC50 at 120 h [2]: 14.8 µM
selectivity ratio [3]: 4

CCOC(=O)c1cnc(NC2CCN(Cc3ccccn3)CC2)nc1Oc1c(C)cc(-c2ccc(C#N)cc2)cc1C
EC50 [1]: 18 nM
CC50 at 120 h [2]: > 222 µM
selectivity ratio [3]: > 12200
EC50 [5]: 128 nM
EC50 [6]: 43 nM
EC50 [7]: 118 nM
EC50 [8]: 313 nM
EC50 [9]: 164 nM
IC50 [4]: 676 nM

CCOC(=O)c1cnc(NC2CCN(Cc3ccc(C)cc3)CC2)nc1Oc1c(C)cc(-c2ccc(C#N)cc2)cc1C
EC50 [1]: 35 nM
CC50 at 120 h [2]: 178 µM
selectivity ratio [3]: 5080
IC50 [4]: 890 nM

O=C1Nc2ccc(Cl)cc2[C@@](C#CC2CC2)(C(F)(F)F)O1 [EFAVIRENZ]
CC50 at 120 h [2]: > 6.35 µM
EC50 [5]: 39 nM
EC50 [6]: 77 nM
EC50 [7]: 8 nM
EC50 [9]: 8 nM

CCOC(=O)c1cnc(NC2CCN(Cc3ccccc3C#N)CC2)nc1Oc1c(C)cc(-c2ccc(C#N)cc2)cc1C
EC50 [1]: 50 nM
CC50 at 120 h [2]: 196 µM
selectivity ratio [3]: 3940
IC50 [4]: 327 nM

CCOC(=O)c1cnc(NC2CCN(Cc3ccc(C#N)cc3)CC2)nc1Oc1c(C)cc(-c2ccc(C#N)cc2)cc1C
EC50 [1]: 217 nM
CC50 at 120 h [2]: 131 µM
selectivity ratio [3]: 604
IC50 [4]: 782 nM

Cc1ccnc2c1NC(=O)c1cccnc1N2C1CC1 [NEVIRAPINE]
CC50 at 120 h [2]: > 15 µM
EC50 [5]: 2000 nM
EC50 [8]: > 10000 nM
EC50 [9]: 153 nM

CCOC(=O)c1cnc(NC2CCN(Cc3ccc(OC)cc3)CC2)nc1Oc1c(C)cc(-c2ccc(C#N)cc2)cc1C
EC50 [1]: 33 nM
CC50 at 120 h [2]: 125 µM
selectivity ratio [3]: 3740
IC50 [4]: 622 nM
